≈ marks a conversion by molar mass, not a printed value.
Experiments:
Type in all cases: cell-based
[1] = test system: Trichophyton mentagrophytes; test: minimum inhibitory concentration (MIC) against fungi, Trich. ment.
Text: (§1) As examples of the effectiveness of the compounds of general Formula III against fungi, Table I indicates the minimum inhibitory concentrations (MIC) of several compounds. The comparison compounds are the known 2-Dimethylamino-6-(β-diethylaminoethoxy)-benzothiazole dihydrochloride and two 5-nitrothiazole derivatives substituted in the 2-position, which are known in the literature (J. Med. Chem. 12 [1969] 303).

Candida albicans = test: minimum inhibitory concentration (MIC) against fungi, Cand. alb.
Text: as §1

Trichophyton rubrum = test: minimum inhibitory concentration (MIC) against fungi, Trich. rubr.
Text: as §1

Row | MIC [1] | MIC (Candida albicans) | MIC (Trichophyton rubrum) | Structure (SMILES)
1 | 3.1 µg/mL (≈ 11.1 µM) | 1.6 µg/mL (≈ 5.71 µM) | 3.1 µg/mL (≈ 11.1 µM) | Cc1ccc(C(=O)c2ncc([N+](=O)[O-])s2)c(F)c1C
2 | 50 µg/mL (≈ 249 µM) | 50 µg/mL (≈ 249 µM) | 50 µg/mL (≈ 249 µM) | CCOC(=N)c1ncc([N+](=O)[O-])s1
3 | 50 µg/mL | 300 µg/mL | 50 µg/mL | CCN(CC)CCOc1ccc2nc(N(C)C)sc2c1.Cl.Cl [2-Dimethylamino-6-(β-diethylaminoethoxy)-benzothiazole dihydrochloride]
4 | 6.3 µg/mL (≈ 21.6 µM) | 1.6 µg/mL (≈ 5.47 µM) | 3.1 µg/mL (≈ 10.6 µM) | Cc1cc(C(=O)c2ncc([N+](=O)[O-])s2)c(C)c(C)c1O
5 | 1.6 µg/mL (≈ 5.01 µM) | 0.4 µg/mL (≈ 1.25 µM) | 1.6 µg/mL (≈ 5.01 µM) | O=C(c1ccc(Br)s1)c1ncc([N+](=O)[O-])s1
6 | 12.5 µg/mL (≈ 58.4 µM) | 25 µg/mL (≈ 117 µM) | 12.5 µg/mL (≈ 58.4 µM) | CC(=O)NN=Cc1ncc([N+](=O)[O-])s1

From US4006241A, “Certain halothien-2-yl 5-nitrothiazol-2-yl ketones and fungicidal composition” (Schering Aktiengesellschaft, priority 1973, dated 1977)
